Measurements as given in article PMC8779255, “Determining the Anticancer Activity of Sphingosine Kinase Inhibitors Containing Heteroatoms in Their Tail Structure” (Pharmaceutics, 2022).
Like-named read-outs stand apart in the source and are kept apart here.

Experiments:
SK1 in HCT116 cells = test: Western blotting of SK1 protein expression; type: cell-based, human; conditions: HCT116, 10 and 20 µM, 24 h, vs control cells
Procedure: The cell lysate was prepared after successive treatment using mammalian protein extraction buffer (Organic buffer + 10 mM NaCl + detergent pH 7.5) mixed with 1% protease/phosphatase inhibitor cocktail; protein was quantified with BCA assay, boiled at 95 °C for 10 min by adding sample loading buffer, separated using SDS-PAGE, and transferred into methanol-activated PVDF membrane. Primary antibodies were probed overnight in PVDF membrane at 4 °C and […] with subsequent HRP anti-mouse and anti-rabbit secondary antibodies at room temperature. Then, membranes were washed with TBST buffer, and images were detected by Amersham Imager 680 (GE Healthcare; Leiden, WZ, The Netherlands) using ECL solution. Band intensities were analyzed and quantified using Image J software (version 1.53i).

HCT116 cells [1] = test: MTT cell viability assay; type: cell-based, human; conditions: for IC50: Homo sapiens, HCT-116, read-out: relative IC50 (cell viability)
Procedure: (§1) The HT29 and HCT116 cells (human colon cancer), AGS (human gastric cancer), and MIA PaCa-2 cells (human pancreatic cancer) were purchased from Korean Cell Line Bank (Seoul, Korea). Cancer cells were maintained in RPMI (HT29 and AGS) and DMEM (HCT116 and MIA PaCa-2) culture media supplemented with 10% fetal bovine serum (FBS) and 100 U/mL penicillin and streptomycin at 37 °C in a 95% humidified incubator containing 5% CO2. The cytotoxic effect of the compounds was assessed using the MTT cell viability assay. Briefly, 3 × 10^3 cells/well were grown in 96-well plates for 24 h. After treatment with desired concentration of respective compounds for 24 h or 48 h, the EZ-CYTOTOX (10 µM) reagent was added in each well and incubated for 90 min. The absorbance was measured at 450 nm wavelength using Skanlt software 5.0 (Thermo Scientific, Waltham, MA, USA) installed on a Multiskan GO (Thermo Scientific, Waltham, MA, USA) spectrophotometer. Each experiment was independently repeated three times (n = 12).

HT29 cells [2] = test: MTT cell viability assay; type: cell-based, human; conditions: for IC50: Homo sapiens, HT-29, read-out: relative IC50 (cell viability)
Procedure: as §1

CYP2C19 = CYP2C19 (Homo sapiens, UniProt P33261); test: Inhibition of CYP enzymes activity, human liver microsomes; conditions: human liver microsomes 0.25 mg/mL, 10 μM, S-mephenytoin substrate
Sequence of CYP2C19 (P33261 whole entry): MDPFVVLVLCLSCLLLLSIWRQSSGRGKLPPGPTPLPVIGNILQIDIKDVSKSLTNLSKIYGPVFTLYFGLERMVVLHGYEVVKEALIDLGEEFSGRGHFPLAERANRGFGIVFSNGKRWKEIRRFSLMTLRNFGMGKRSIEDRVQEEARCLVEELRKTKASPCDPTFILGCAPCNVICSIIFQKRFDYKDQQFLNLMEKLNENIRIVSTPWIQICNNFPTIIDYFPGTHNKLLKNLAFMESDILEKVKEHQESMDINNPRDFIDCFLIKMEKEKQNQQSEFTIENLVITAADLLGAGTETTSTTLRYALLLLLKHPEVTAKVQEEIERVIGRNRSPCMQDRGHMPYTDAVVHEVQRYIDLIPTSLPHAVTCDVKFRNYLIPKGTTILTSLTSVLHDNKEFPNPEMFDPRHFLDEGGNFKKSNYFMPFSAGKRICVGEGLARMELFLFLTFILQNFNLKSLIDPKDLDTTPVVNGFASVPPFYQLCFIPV
Procedure: (§3) By simultaneously analyzing metabolites, the ability of the six compounds to inhibit drug metabolism enzymes was evaluated.
(§4) Metabolites of each CYP coenzyme indicator drug generated through the above reaction were analyzed using the Shimadzu Nexera XR system and TSQ vantage (Thermo). The HPLC column was a Kinetex C18 column (2.1 × 100 mm^2, 2.6 μm particle size; Phenomenex, Torrance, CA, USA), and the mobile phase was distilled water (A) containing 0.1% formic acid and acetonitrile (B) containing 0.1% formic acid. […] The generated metabolites were quantified using MRM (Multiple Reaction Monitoring) quantification modes, and data were analyzed using Xcalibur (version 1.6.1).

S1P in HCT116 cells = test: S1P ELISA of cell lysate; type: cell-based, human
Procedure: The cellular levels of S1P, sphingosine, and ceramide were detected using an ELISA assay kit (MyBioSource, Inc., San Diego, CA, USA) according to the manufacturer’s instruction. For S1P ELISA, 100 µL cell lysates or standards were added in pre-coated ELISA wells, incubated for 90 min at 37 °C, and treated with 1x biotinylated anti S1P antibody for 1 h. Following treatment of HRP conjugated secondary antibody, the substrate was added and allowed to change the color for 15 min; then, the stop solution was added and absorbance was measured at 450 nm using a Multiskan GO (Thermo Scientific, Waltham, MA, USA) microplate spectrophotometer. […] A stop solution (50 µL) was added to each well, and optical density was measured at 450 nm using a microplate reader. […] After incubation, 50 µL substrate A and B was added to the plate and incubated at 37 °C for 20 min; a stop solution (50 µL) was added to each well and optical density was determined at 450 nm using a microplate reader. The concentration of S1P, sphingosine, and ceramide were calculated as ng/mL using respective standard curves constructed by Skanlt microplate reader software 5.0 (Thermo Scientific, Waltham, MA, USA).

SK1 enzyme = molecular target: T1, SK1 enzyme (Homo sapiens, UniProt Q9NYA1); test: SK activity assay (Adapta screening system); type: biochemical; conditions: final concentration of 20 μM
T1 construct: purchased Thermo Fisher Scientific
T1 sequence (Q9NYA1 whole entry): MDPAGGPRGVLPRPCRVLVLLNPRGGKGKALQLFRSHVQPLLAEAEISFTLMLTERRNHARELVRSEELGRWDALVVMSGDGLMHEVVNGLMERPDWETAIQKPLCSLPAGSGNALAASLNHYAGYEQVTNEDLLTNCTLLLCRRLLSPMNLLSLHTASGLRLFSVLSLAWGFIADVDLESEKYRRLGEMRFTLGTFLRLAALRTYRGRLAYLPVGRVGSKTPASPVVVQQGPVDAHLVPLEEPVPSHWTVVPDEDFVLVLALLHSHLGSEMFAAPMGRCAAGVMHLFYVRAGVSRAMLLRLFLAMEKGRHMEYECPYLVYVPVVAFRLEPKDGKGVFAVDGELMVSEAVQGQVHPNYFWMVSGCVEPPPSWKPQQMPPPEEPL
Procedure: The effect of compounds in sphingosine kinase activity was examined using the […] screening system (Thermo Fisher Scientific System, Waltham, MA, USA). The kinase inhibition ability of compounds 1-11 along with RB005 was measured with final concentration of 20 μM. […] The data were presented as percentage inhibition of SK enzyme by individual compounds.

[3] = In vitro metabolic stability in liver microsomes; type: in vitro ADME, rat
CYP2C9 = CYP2C9 (Homo sapiens, UniProt P11712); test: Inhibition of CYP enzymes activity, human liver microsomes; conditions: human liver microsomes 0.25 mg/mL, 10 μM, diclofenac substrate
Sequence of CYP2C9 (P11712 whole entry): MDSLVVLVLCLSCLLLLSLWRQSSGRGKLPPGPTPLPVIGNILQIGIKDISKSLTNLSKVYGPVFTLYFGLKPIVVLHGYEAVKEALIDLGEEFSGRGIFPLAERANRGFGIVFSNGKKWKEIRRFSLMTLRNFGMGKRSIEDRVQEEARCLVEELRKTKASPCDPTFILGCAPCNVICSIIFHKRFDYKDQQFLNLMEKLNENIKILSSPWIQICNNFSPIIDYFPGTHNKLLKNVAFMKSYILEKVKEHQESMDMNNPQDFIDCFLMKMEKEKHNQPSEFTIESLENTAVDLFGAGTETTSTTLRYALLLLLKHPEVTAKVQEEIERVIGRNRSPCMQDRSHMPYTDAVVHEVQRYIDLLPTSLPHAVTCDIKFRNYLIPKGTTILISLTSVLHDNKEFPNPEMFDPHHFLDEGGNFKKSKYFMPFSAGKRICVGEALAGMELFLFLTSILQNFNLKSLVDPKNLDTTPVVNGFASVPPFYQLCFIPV
Procedure: as §3, §4

[4] = In vitro metabolic stability in liver microsomes; type: in vitro ADME, mouse
HCT116 cells [5] = test: Mitochondrial outer membrane potential (MOMP) by JC-10 staining; type: cell-based, human; conditions: HCT116, 10 and 20 µM, 24 h, vs nontreated control
Procedure: (§2) To access the mechanism of cell death, mitochondrial outer membrane potential (MOMP) was measured using JC-10 cationic dye. HT29 and HCT116 cells (2.5 × 10^5 cells/well) were seeded in 12-well plates and treated with a test compound for 24 h, collected in 1.5 mL microtubes using trypsin-EDTA, washed with 1× cold PBS, and stained with JC-10 dye prepared in HBSS solution (0.14 M NaCl, 0.005 M KCl, 0.001 M CaCl2, 0.005 M MgSO4. 7H2O, 0.0004 M […], 0.0003 M Na2HPO4-2H2O, 0.0004 M KH2PO4, 0.006 M D-glucose, 0.004 M NaHCO3, 0.002 M HEPES, and 0.02% Pluronic® F-127) for 30 min. Samples were analyzed using MACSQuanta Analyzer 10. Cells with green and red fluorescence were plotted in a dot plot; the ratio of red to green fluorescence was calculated using MACSQuantify^TM version 2.8 software and presented as MOMP of the cells. The experiment was repeated three times (n = 6).

HT29 cells [6] = test: as above; type: cell-based, human; conditions: HT29, 10 and 20 µM, 24 h, vs nontreated control
Procedure: as §2

[7] = % remaining after 30 min, NADPH

- IC50 (HCT116 cells [1]; HCT116, 24 h treatment): 10.9 µM
- IC50 (HCT116 cells [1]; HCT116, 48 h treatment, 2.5–40 µM): 8.69 µM
- IC50 (HT29 cells [2]; HT29, 24 h treatment): 10.5 µM
- IC50 (HT29 cells [2]; HT29, 48 h treatment, 2.5–40 µM): 6.22 µM
- CYP2C19 activity (% of control activity) (CYP2C19): 96.5%
- inhibition at 20 µM (SK1 enzyme): 20%
- liver microsomal stability, Rat (%) [3, 7]: 10.2%
- liver microsomal stability (in words) ([3]; rat): unstable
- CYP2C9 activity (% of control activity) (CYP2C9): >100%
- liver microsomal stability, Mouse (%) [4, 7]: 44.7%
- liver microsomal stability (in words) ([4]; mouse): unstable
Structure (SMILES): CCCCCCCOc1ccc(CCN2CCN(CCO)CC2)cc1 [Compound 10, 2-(4-(4-(Heptyloxy)phenethyl)piperazin-1-yl)ethanol]
- SK1 protein expression level (SK1 in HCT116 cells): does not affect
- cytotoxic effect, comparison (HCT116 cells [1]; HCT116, 10, 20 and 40 µM, Supplementary Figure S1C): higher than compounds 11, 13, and PF-543
- cytotoxic effect (cell viability) (HCT116 cells [1]; HCT116, 20 and 40 µM, 24 h, Figure 2B): significant cytotoxic effects in both 20 and 40 µM concentrations
- cytotoxic effect (cell viability) (HT29 cells [2]; HT29, 20 and 40 µM, 24 h, Figure 2A): more cytotoxic than RB005 and 5-FU
- S1P level decrease (S1P in HCT116 cells): 42%
- S1P level (S1P in HCT116 cells; HCT116, 10 and 20 µM, 24 h, vs nontreated control): significantly reduces
- JC-10 dye red to green fluorescence ratio (MOMP) (HCT116 cells [5]): significantly reduced
- JC-10 dye red to green fluorescence ratio (MOMP) (HT29 cells [6]): significantly reduced
